Literature values, collected in patent EP4223883A1, “PROCESS FOR PRODUCING TRYPTAMINES” (Infinit Biosystems, priority 2022, dated 2023).

Key:
[1] = molecular target: T1, PSI K, 4-hydroxytryptamine kinase, Psilocybe cubensis, Uniprot: P0DPA8 (Psilocybe cubensis, UniProt P0DPA8); details: substrate taken from the text, not given; Km of the cofactor (ATP) considered equal
T1 sequence (P0DPA8 1-362): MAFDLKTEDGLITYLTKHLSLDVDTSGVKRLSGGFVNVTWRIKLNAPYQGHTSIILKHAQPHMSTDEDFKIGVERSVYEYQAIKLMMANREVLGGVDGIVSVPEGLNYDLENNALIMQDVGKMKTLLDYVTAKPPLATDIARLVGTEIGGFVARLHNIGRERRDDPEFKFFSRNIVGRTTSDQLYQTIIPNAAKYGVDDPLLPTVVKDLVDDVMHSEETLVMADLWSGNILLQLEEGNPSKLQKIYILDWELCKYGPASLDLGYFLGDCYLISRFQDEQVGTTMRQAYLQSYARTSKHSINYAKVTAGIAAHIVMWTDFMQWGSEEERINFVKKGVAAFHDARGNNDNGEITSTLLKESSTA

[2] = tested on: PSI M, N-methyltransferase, Psilocybe cubensis, Uniprot: P0DPA9
[3] = tested on: T2, PSI H, Tryptamine 4-monooxygenase, Psilocybe cubensis, Uniprot: A0A286LF02; details: substrate taken from the text, not given; Km of the cofactor (NADPH) considered equal
T2 sequence (A0A286LF02 20-507): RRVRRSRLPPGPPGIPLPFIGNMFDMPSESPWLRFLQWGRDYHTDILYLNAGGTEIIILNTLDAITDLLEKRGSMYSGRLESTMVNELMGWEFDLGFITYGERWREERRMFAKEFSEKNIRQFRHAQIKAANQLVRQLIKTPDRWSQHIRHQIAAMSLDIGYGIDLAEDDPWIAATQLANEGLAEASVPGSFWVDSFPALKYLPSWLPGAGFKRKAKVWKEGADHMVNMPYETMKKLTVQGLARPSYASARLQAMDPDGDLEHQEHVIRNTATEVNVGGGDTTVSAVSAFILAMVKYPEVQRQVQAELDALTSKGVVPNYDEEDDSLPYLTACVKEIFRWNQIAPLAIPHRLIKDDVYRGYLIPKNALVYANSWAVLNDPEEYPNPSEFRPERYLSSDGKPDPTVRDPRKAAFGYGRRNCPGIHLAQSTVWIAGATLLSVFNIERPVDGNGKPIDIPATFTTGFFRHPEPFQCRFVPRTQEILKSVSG

Compound: NCCc1c[nH]c2cccc(O)c12 [4-hydroxytryptamine]
- Km [1]: 80 µM

Compound: NCCc1c[nH]c2cccc(OP(=O)(O)O)c12 [norbaeocystin]
- Km [2]: 165 µM

Compound: NCCc1c[nH]c2ccccc12 [tryptamine, Tryptamine]
- Km [3]: 220 µM
